Source: patent publication US6653298B2, “Composition” (Sterix Limited, priority 2000, dated 2003)
One block for each molecule: values may come before it.

Columns and labels:
[1] = system: Meth A sarcoma, B16 melanoma or MDA-MB-435 estrogen receptor negative (ER−) breast cancer cells; settings: subcutaneous injection of Meth A sarcoma, B16 melanoma or MDA-MB-435 cells; cited from earlier work
endothelial cell = settings: cited from earlier work
angiogenesis = settings: cited from earlier work
microtubule = settings: at high concentrations; cited from earlier work
tubulin = settings: at high concentrations; cited from earlier work
E1-STS [2] = target: T1, E1-STS (Homo sapiens, UniProt P08842); settings: cited from earlier work
T1 sequence (P08842 22-583): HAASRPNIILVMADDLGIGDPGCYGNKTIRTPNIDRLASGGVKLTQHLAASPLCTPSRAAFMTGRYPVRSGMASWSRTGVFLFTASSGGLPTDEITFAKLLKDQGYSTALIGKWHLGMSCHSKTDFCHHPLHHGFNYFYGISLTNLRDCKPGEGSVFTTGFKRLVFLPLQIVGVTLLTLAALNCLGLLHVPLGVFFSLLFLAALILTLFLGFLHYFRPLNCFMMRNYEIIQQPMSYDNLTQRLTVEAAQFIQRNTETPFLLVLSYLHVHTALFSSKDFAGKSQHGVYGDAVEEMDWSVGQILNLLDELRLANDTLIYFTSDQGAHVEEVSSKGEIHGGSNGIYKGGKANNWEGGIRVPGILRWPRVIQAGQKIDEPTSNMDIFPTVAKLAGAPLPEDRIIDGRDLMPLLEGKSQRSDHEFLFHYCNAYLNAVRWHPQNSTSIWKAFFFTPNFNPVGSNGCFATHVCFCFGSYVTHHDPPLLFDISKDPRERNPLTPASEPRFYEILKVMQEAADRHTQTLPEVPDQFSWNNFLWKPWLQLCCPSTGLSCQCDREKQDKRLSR

uterine growth = settings: cited from earlier work
[3] = referring to antigonadotropic properties; cited from earlier work
[4] = single oral dose 50 μg, FIG. 4; cited from earlier work
[5] = target: T2, dehydroepiandrosterone sulphatase (DHA-STS) (Homo sapiens, UniProt P08842); settings: cited from earlier work
T2 sequence (P08842 22-583): T1 sequence (P08842 22-583)

rat liver DHA-STS = target: T3, rat liver DHA-STS (Rattus norvegicus, UniProt P15589); settings: in vivo, administered either orally or subcutaneously; cited from earlier work
T3 construct: samples of liver tissue were obtained and oestrone sulphatase activity assayed; from tissue; host or cells: rat liver (after in vivo dosing)
T3 sequence (P15589 20-577): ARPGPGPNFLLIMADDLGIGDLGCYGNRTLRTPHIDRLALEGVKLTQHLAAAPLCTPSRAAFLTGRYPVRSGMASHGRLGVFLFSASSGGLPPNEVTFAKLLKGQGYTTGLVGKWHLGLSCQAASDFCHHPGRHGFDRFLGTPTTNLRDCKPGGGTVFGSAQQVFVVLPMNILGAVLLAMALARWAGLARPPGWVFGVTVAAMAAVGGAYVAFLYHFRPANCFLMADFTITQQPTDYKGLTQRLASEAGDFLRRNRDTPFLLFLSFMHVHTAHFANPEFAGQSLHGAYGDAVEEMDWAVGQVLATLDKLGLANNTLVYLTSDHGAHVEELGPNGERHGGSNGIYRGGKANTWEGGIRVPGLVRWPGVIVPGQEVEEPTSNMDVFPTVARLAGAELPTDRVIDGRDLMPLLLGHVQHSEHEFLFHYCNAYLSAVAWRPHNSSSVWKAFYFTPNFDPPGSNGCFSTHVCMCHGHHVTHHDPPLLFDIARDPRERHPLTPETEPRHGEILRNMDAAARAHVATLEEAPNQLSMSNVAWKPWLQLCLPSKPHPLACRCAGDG

[6] = rats; cited from earlier work
E1-STS [7] = target: T1, E1-STS; parameters: endogenous in cells; host or cells: MCF-7; dose or concentration left out as unconfirmed; settings: intact MCF-7 cells; cited from earlier work
[8] = Distribution of compound in blood (erythrocyte binding)
estrogen receptor [9] = assay: In vitro estrogen receptor binding / displacement of radiolabelled oestradiol
Experimental: (§1) Oestradiol Sulfamate (J995) was investigated with respect to its hormonal properties in vitro and in vivo. In vitro studies included the evaluation of its specific binding to oestrogen receptors using cytosolic preparations of uterine tissue of rats and mice and MCF-7 tumor cells. In vivo studies were performed on several animal species including intact and ovariectomised rats and cynomolgus monkeys. These species served for detailed pharmacodynamic and pharmacokinetic studies at parenteral and oral administration of the compound.

estrogen receptor [10] = target: T4, estrogen receptor (Mus musculus, UniProt P19785); assay: Specific binding of radiolabelled J995 to estrogen receptor of mice
T4 construct: using cytosolic preparations of uterine tissue of rats and mice and MCF-7 tumor cells; from tissue; host or cells: mouse uterine cytosol
T4 sequence (P19785 1-599): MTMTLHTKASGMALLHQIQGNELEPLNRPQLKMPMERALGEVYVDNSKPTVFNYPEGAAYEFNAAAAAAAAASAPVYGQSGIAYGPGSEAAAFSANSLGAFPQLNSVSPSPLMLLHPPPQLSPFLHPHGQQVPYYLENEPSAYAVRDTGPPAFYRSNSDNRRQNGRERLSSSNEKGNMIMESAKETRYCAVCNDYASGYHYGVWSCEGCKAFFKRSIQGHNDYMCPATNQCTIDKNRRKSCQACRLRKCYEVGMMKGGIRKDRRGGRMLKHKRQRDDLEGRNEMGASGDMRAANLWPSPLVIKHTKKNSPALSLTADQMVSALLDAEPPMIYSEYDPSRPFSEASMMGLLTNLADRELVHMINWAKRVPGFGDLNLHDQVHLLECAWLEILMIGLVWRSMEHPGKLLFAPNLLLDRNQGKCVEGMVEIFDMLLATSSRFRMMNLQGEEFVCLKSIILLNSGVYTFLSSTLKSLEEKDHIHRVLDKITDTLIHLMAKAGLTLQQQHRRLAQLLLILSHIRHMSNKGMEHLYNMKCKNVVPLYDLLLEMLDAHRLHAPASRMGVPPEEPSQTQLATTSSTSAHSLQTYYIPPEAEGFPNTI
Experimental: as §1

estrogen receptor [11] = target: T5, estrogen receptor (Rattus norvegicus, UniProt P06211); assay: Specific binding of radiolabelled J995 to estrogen receptor of rats
T5 construct: using cytosolic preparations of uterine tissue of rats and mice and MCF-7 tumor cells; from tissue; host or cells: rat uterine cytosol
T5 sequence (P06211 1-600): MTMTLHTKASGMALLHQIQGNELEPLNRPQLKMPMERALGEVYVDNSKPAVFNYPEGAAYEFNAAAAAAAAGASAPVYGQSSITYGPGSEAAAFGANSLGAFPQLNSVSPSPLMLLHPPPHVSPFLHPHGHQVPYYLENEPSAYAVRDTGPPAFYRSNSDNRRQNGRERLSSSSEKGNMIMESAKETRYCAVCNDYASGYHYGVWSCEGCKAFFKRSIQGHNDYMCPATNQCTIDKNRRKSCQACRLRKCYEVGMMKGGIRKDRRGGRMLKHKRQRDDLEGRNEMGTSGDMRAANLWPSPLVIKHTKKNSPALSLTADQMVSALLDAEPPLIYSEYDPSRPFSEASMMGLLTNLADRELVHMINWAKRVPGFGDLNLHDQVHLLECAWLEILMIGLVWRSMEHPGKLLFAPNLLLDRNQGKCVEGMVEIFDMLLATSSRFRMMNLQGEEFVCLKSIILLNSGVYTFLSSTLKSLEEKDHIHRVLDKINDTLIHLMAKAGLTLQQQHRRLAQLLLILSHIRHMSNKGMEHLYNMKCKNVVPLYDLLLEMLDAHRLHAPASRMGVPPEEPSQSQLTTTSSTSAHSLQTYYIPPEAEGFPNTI
Experimental: as §1

estrogen receptor [12] = target: T6, estrogen receptor (Homo sapiens, UniProt P03372); assay: Specific binding of radiolabelled J995 to human estrogen receptor
T6 construct: using cytosolic preparations of uterine tissue of rats and mice and MCF-7 tumor cells; endogenous in cells; host or cells: MCF-7 cytosol
T6 sequence (P03372 1-595): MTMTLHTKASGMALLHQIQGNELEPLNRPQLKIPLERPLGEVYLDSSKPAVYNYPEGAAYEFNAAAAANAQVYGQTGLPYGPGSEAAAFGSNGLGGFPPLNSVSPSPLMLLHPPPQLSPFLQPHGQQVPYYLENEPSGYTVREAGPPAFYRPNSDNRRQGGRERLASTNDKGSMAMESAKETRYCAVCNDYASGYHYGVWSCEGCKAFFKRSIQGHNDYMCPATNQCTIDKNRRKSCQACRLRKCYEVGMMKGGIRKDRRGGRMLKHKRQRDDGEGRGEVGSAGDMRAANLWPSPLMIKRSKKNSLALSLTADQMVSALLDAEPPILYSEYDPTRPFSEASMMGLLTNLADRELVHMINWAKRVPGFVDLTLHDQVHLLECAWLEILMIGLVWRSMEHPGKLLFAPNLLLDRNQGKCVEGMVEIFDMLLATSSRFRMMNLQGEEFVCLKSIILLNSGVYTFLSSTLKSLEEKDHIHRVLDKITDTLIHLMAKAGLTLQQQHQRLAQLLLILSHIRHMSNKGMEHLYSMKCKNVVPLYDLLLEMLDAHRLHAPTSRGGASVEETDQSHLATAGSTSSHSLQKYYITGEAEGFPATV
Experimental: as §1

[13] = Clinical pharmacokinetics after oral administration in postmenopausal women; format: in vivo, human
Experimental: Studies in the human were performed with oral administration of the compound in postmenopausal women. Several doses at single and multiple administration were evaluated. […] studies were performed with solutions in oily vehicles for parenteral administration. Oral treatment was performed with suspensions of cristalline J995 in aquaeous vehicle. Clinical studies were performed with amorphous drug substance galenically formulated with a mixture of conventional ingredients as capsules or tablets.

[14] = single oral dose of 0.5 mg, FIG. 11
[15] = single oral dose of 0.5 mg, over 5 days, FIG. 11

Molecule: COc1cc2c(cc1O)CC[C@@H]1[C@@H]2CC[C@]2(C)[C@@H](O)CC[C@@H]12 [2-MeOE2, 2-methoxyoestradiol]
growth of tumours in vivo [1]: inhibits the growth of tumours | endothelial cell proliferation and migration (endothelial cell): inhibits endothelial cell proliferation and migration | in vitro angiogenesis (angiogenesis): inhibits | microtubule polymerisation (microtubule): can inhibit microtubule polymerisation | inhibition of colchicine binding to tubulin (tubulin): weak inhibitor of colchicine binding to tubulin

Molecule: COc1cc2c(cc1OS(N)(=O)=O)CC[C@@H]1[C@@H]2CC[C@]2(C)C(=O)CC[C@@H]12 [2-methoxyoestrone-3-O-sulphamate, reference compound]
potency as steroid sulphatase inhibitor relative to EMATE (E1-STS [2]): equipotent with EMATE | oestrogenicity (uterine growth; rat, in vivo): devoid of oestrogenicity

Molecule: C#C[C@]1(O)CC[C@H]2[C@@H]3CCc4cc(O)ccc4[C@H]3CC[C@@]21C [EE, ethinyl estradiol]
oestrogenicity in the liver relative to orally applied natural estrogens [3]: 4 to 18 times | definition of blood levels (individual variation) [4]: does not lead to well defined blood levels

Molecule: CC12CCC3c4ccc(OS(N)(=O)=O)cc4CCC3C1CCC2=O (stereo not drawn) [EMATE, oestrone-3-O-sulphamate]
manner of inhibition of the E1-STS enzyme (E1-STS [2]): time- and concentration-dependent manner | inhibition of DHA-STS [5]: inhibits dehydroepiandrosterone sulphatase | inhibition of rat liver DHA-STS activity (rat liver DHA-STS): 99% | effect on memory [6]: memory enhancing effect | oral uterotrophic activity relative to estradiol (uterine growth; rats, oral): 100 times | inhibition of E1-STS activity (E1-STS [7]): more than 99%

amount circulating in the erythrocyte compartment [8]: 98-99% | affinity to the estrogen receptor (estrogen receptor [9]; in vitro): no affinity to the estrogen receptor | specific binding of radioactively labelled compound to estrogen receptor (estrogen receptor [10]): no specific binding | specific binding of radioactively labelled compound to estrogen receptor (estrogen receptor [11]): no specific binding | specific binding of radioactively labelled compound to estrogen receptor (estrogen receptor [12]): no specific binding | factor by which metabolite oestrone sulphate stays lower than under Oestradiol Valerate treatment ([13]; FIG. 5: single oral 2 mg J995 vs multiple doses 2 mg E2V): ≥ 10 | constancy of blood levels of oestrogens ([13]; FIGS. 5-10): very constant, long lasting blood levels | oestrone sulphate levels in wash out phase ([13]; after 14 days of 100 μg per day, wash out phase over 144 hours, FIG. 9): almost constant oestrone sulphate levels | orally administered compound reaching the erythrocyte pool ([13]; oral): ~100% | prodrug appearing as oestrone and oestradiol in the circulation ([13]; oral, FIG. 11): more than 50% | total ES amount in blood [13, 14]: ≈ 500 μg/5 L blood | total ES concentration per blood volume [13, 14]: ~100 μg/L blood | total ES erythrocyte conc. [13, 14]: Ca. 200 ng/mL erythrocytes | E1S plasma level [13, 15]: 700 pg/mL | E1 plasma level [13, 15]: 40 pg/mL | Clearance of E1S calculated (amount) ([13]; single oral dose of 0.5 mg, 110 l×700 ng/l/day): 385 μg/5 days | Clearance of E1 calculated (amount) ([13]; single oral dose of 0.5 mg, 1870 l×40 ng/l/day): 374 μg/5 days
Molecule: C[C@]12CC[C@@H]3c4ccc(OS(N)(=O)=O)cc4CC[C@H]3[C@@H]1CC[C@@H]2O [J995, oestradiol-3-sulphamate]
displacement of specifically bound radioactively labelled Oestradiol (estrogen receptor [9]; huge excess of J995): unable to displace specifically bound radioactively labelled Oestradiol | oestradiol levels compared with Oestradiol Valerate at the same dose ([13]; FIGS. 6, 7): higher and much longer lasting oestradiol levels

Molecule: oestrone-3-N-sulphamate
manner of inhibition of the E1-STS enzyme (E1-STS [2]): weaker non-time-dependent inactivators

Molecule: oestrone-3-S-sulphamate
manner of inhibition of the E1-STS enzyme (E1-STS [2]): weaker non-time-dependent inactivators
